Measured values reported in patent publication US7799955B2, “Isoflavone metabolites” (priority 1999, dated 2010).
Values after ≈ are worked out from the molar mass of the structure shown. Like-named read-outs stand apart in the source and are kept apart here.

Legend:
[1] = tested on: MDA-MB-468 (estrogen negative) cancer cells; test: Inhibition of MDA-MB-468 (estrogen negative) breast cancer cells; assay type: cell-based; conditions: for IC50, MDA-MB-468 cells / IC50: day 6; for IC50: Homo sapiens, MDA-MB-468, 144 h
MCF-7 cells [2] = test: MTS in vitro cytotoxicity / cell viability assay on MCF-7 breast cancer cells; assay type: cell-based; conditions: for IC50: Homo sapiens; for inhibition of MCF7 cells at low concentration / proliferative activity of cancer cells at low concentration: concentrations of less than or equal to 10 μM
Protocol: Compound A was compared with genistein to test the cell viability of MCF-7 cells. […] The cell viability was tested using the MTS in vitro cytotoxicity assay. This is considered the most convenient assay because of its ease of use, accuracy and rapid indication of toxicity (Malich G et al., Toxicology 124(3): 179-92 (1997).

LNCap cells = test: IC50 against LNCap cells; assay type: cell-based; conditions: Homo sapiens
PC3 cells = test: IC50 against PC3 cells; assay type: cell-based; conditions: Homo sapiens, PC-3
MCF-7 cells [3] = conditions: cited from earlier work; for effect on growth of MCF-7 cells at low concentration: at <10 μM
[4] = day 6 of incubation, Examples 10 and 11
[5] = MCF7, Example 8 table, read-out: IC50 against MCF-7 cells
[6] = MCF7, 24 h, 1 day of incubation, Example 8, read-out: IC50, cell viability of MCF-7 cells
[7] = MCF7, 48 h, 2 days of incubation, Example 8, read-out: IC50, cell viability of MCF-7 cells
[8] = MCF7, 72 h, 3 days of incubation, Example 8, read-out: IC50, cell viability of MCF-7 cells
[9] = MCF7, 144 h, day 6 of incubation, Examples 10 and 11, read-out: IC50, MCF-7 estrogen positive breast cancer cells
[10] = MCF7, 8 hours incubation, Example 9, read-out: IC50, MCF7 cells
[11] = MCF7, Example 9, incubation time not given, read-out: IC50, inhibitory effect on MCF7 cells (no significant effect)

With `CC(C(=O)c1c(O)cc(O)cc1O)c1ccc(O)cc1` (centres unmarked) [6-hydroxy-O-Dma] the “IC50, MDA-MB-468 cells” value [1] was 43 µg/mL (≈ 157 µM) and the “IC50, MCF-7 estrogen positive breast cancer cells” value (MCF-7 cells [2]; [4]) was 33 µg/mL (≈ 120 µM).
For `CC(C(=O)c1ccc(O)cc1O)c1ccc(O)c(O)c1` (centres unmarked) [(V), 1-(2,4,dihydroxyphenyl)-2-(3,4-dihydroxyphenyl)-propan-1-one], the IC50 (MCF-7 cells [2]; [5]) was 10 to 20 µg/mL (≈ 36.5 to 72.9 µM).
With `C=C(C(=O)c1ccc(O)cc1O)c1ccc(O)c(O)c1` [(VI), 1-(2,4-di-hydroxyphenyl)-2-(3,4-dihydroxyphenyl)-prop-2-cn-1-one] the IC50 (LNCap cells) was 7 µg/mL (≈ 25.7 µM), the IC50 (MCF-7 cells [2]; [5]) was 3.2 µg/mL (≈ 11.8 µM) and the IC50 (PC3 cells) was 6.2 µg/mL (≈ 22.8 µM).
`O=C1c2ccc(O)cc2OCC1c1ccc(O)c(O)c1` (centres unmarked) [(VII), 3′-hydroxy-dihydrodaidzen] showed an IC50 (MCF-7 cells [2]; [5]) of ~28 µg/mL (≈ 103 µM).
With `C=C(C(=O)c1cc(O)c(O)cc1O)c1ccc(O)cc1` [(VIII), 1-(2,4,5-trihydroxyphenyl)-2-(4-hydroxyphenyl)-prop-2-cn-1-one] the IC50 (MCF-7 cells [2]; [5]) was < 8 µg/mL.
In the case of `CC(C(=O)c1cc(O)c(O)cc1O)c1ccc(O)cc1` (centres unmarked) [Compound A, 1-(2,4,5-trihydroxyphenyl)-2-(4-hydroxyphenyl)-propan-1-one], the IC50 [1] is reported as 6.8 µg/mL (≈ 24.8 µM), the “times more inhibitive than O-Dma and 6-hydroxy-O-Dma” value ([1]; MDA-MB-468, day 6) is reported as 3-7 times and the “effect on growth of MCF-7 cells at low concentration” value (“effect on growth of MCF-7 cells” for short) (MCF-7 cells [2]; 2.5 micrograms/ml, within 8 hours of incubation and at days 1 and 2) is reported as “inhibited the growth”. For the same molecule, the IC50 (MCF-7 cells [2]; [6]) was 6 µg/mL (≈ 21.9 µM), the IC50 (MCF-7 cells [2]; [7]) was 6.5 µg/mL (≈ 23.7 µM) and the IC50 (MCF-7 cells [2]; [8]) was 7 µg/mL (≈ 25.5 µM). It also gave an IC50 (MCF-7 cells [2]; [9]) of 2.1 µg/mL (≈ 7.66 µM), an IC50 (MCF-7 cells [2]; [10]) of 6 µg/mL (≈ 21.9 µM) and an IC50 (MCF-7 cells [2]; [5]) of 6 to 10 µg/mL (≈ 21.9 to 36.5 µM). The IC50 (MCF-7 cells [2]; MCF7, incubations at 24, 48, 72 and 144 hours, Example 9, read-out: IC50, MCF7 cells) was 4 to 7 µg/mL (≈ 14.6 to 25.5 µM), the “inhibition of MCF7 breast cancer cells compared with genistein, daidzein, precursors and metabolites” value (MCF-7 cells [2]; concentrations of 15-40 μg/ml, Example 9) was “significant inhibition” and the “inhibition of MCF7 cells at low concentration” value (MCF-7 cells [2]; Example 9) was “no significant inhibition”. For the same molecule, the “proliferative activity of cancer cells at low concentration” value (MCF-7 cells [2]; MCF7, Example 9) was “no proliferative activity”.
With `O=c1c(-c2ccc(O)cc2)coc2cc(O)c(O)cc12` [Factor 2, 6,7,4′-trihydroxyisoflavone] the IC50 (MCF-7 cells [2]; [9]) was 12 µg/mL (≈ 44.4 µM).
In the case of `CC(C(=O)c1ccc(O)cc1O)c1ccc(O)cc1` (centres unmarked) [O-Dma, O-desmethylangolensin], the “IC50, MDA-MB-468 cells” value [1] is reported as 20 µg/mL (≈ 77.4 µM) and the “IC50, MCF-7 estrogen positive breast cancer cells” value (MCF-7 cells [2]; [4]) is reported as 38 µg/mL (≈ 147 µM).
In the case of `COc1ccc(-c2coc3cc(O)cc(O)c3c2=O)cc1` [biochanin A], the IC50 (MCF-7 cells [2]; MCF7, 72 and 144 hours incubation, Example 9, read-out: IC50, inhibitory effect on MCF7 cells) is listed as 18 to 23 µg/mL (≈ 63.3 to 80.9 µM) and the “effect on growth of MCF-7 cells” value (MCF-7 cells [3]) is listed as “can enhance the growth”.
For `O=c1c(-c2ccc(O)cc2)coc2cc(O)ccc12` [daidzein], the IC50 (MCF-7 cells [2]; [11]) is given as ≥ 36 µg/mL and the “effect on growth of MCF-7 cells” value (MCF-7 cells [3]) is given as “can enhance the growth”.
In the case of `Oc1ccc([C@H]2COc3cc(O)ccc3C2)cc1` [equol], the IC50 (MCF-7 cells [2]; [11]) is listed as ≥ 36 µg/mL and the “effect on growth of MCF-7 cells” value (MCF-7 cells [3]) is listed as “can enhance the growth”.
With `COc1ccc(-c2coc3cc(O)ccc3c2=O)cc1` [formononetin] the IC50 (MCF-7 cells [2]; [11]) was ≥ 36 µg/mL.
Work on `O=c1c(-c2ccc(O)cc2)coc2cc(O)cc(O)c12` [genistein] yielded an IC50 [1] of 8.8 µg/mL (≈ 32.6 µM), an IC50 (MCF-7 cells [2]; [6]) of 32 µg/mL (≈ 118 µM) and an IC50 (MCF-7 cells [2]; [7]) of 22 µg/mL (≈ 81.4 µM). The IC50 (MCF-7 cells [2]; [8]) was 15 µg/mL (≈ 55.5 µM), the IC50 (MCF-7 cells [2]; MCF7, 144 h, 6 days of incubation, Example 8, read-out: IC50, cell viability of MCF-7 cells) was 18 µg/mL (≈ 66.6 µM) and the IC50 (MCF-7 cells [2]; [10]) was > 40 µg/mL. For the same molecule, the IC50 (MCF-7 cells [2]; MCF7, 48 hours incubation, Example 9, read-out: IC50, MCF7 cells) was 38 µg/mL (≈ 141 µM), the IC50 (MCF-7 cells [2]; MCF7, 144 hours incubation, Example 9, read-out: IC50, MCF7 cells) was 15 µg/mL (≈ 55.5 µM) and the “effect on growth of MCF-7 cancer cells at low concentration” value (MCF-7 cells [2]; concentrations <10 μM, Example 8) was “enhance rather than inhibit the growth”. The “inhibition of MCF7 cells at low concentration” value (MCF-7 cells [2]; Example 9) was “no significant inhibition”, the “proliferative activity of cancer cells at low concentration” value (MCF-7 cells [2]; MCF7, Example 9) was “some proliferative activity” and the “effect on growth of MCF-7 cells” value (MCF-7 cells [3]) was “can enhance the growth”. The IC50 (MCF-7 cells [3]; induced by 1-(o-chlorophenyl)-1-(p-chlorophenyl)-2,2,2-trichloroethane, 5-octylphenol, 4-nonylphenol, read-out: IC50, inhibition of proliferation of MCF-7 cells induced by environmental chemicals) was 25 to 33 µM.
